In US11286268B1, “EIF4E-inhibiting compounds and methods” (EFFECTOR THERAPEUTICS, INC., priority 2019, dated 2022):
pIC50: −log10 of the molar value.

Target: recombinant eIF4E (Homo sapiens (Human), UniProt P06730)
Assay: Fluorescence polarization competition assay for eIF4E binding potency
Settings: inhibition of eIF4E/EDA-m7GDP-ATTO-550 binding; calculated IC50 values, Table 4B; read-out: IC50
Outline: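 FP readout; IC50 fit from 8-point, 3-fold series. 75 nM eIF4E + 20 nM ATTO-550-labelled m7GDP probe, Tris pH 7.5/NaCl/DTT/Tween buffer, 1% DMSO final. 30 min RT equilibration, light-protected.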

Sequence of recombinant eIF4E (P06730 whole entry): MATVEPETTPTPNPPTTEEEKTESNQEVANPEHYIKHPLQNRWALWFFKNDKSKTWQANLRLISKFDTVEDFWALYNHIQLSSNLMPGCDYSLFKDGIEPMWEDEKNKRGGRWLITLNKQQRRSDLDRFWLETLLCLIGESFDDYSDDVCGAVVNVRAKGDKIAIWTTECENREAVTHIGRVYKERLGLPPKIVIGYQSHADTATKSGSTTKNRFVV

SMILES	pIC50
CCN(c1ncc2nc(C)n(CC#Cc3ccc(Cl)cc3-c3ccnc4c(C(=O)NS(=O)(=O)c5cccnc5)csc34)c(=O)c2c1C#N)C1CCN(CC(F)(F)C(F)F)CC1 [compound 1709]	7.55
Cc1nc2cnc(N(C)C3CCN(CCC(C)(F)F)CC3)c(C#N)c2c(=O)n1CC#Cc1ccc(Cl)cc1-c1ccnc2c(C(=O)NS(C)(=O)=O)csc12 [compound 1713]	7.80
Cc1nc2cnc(N(C)C3CCN(CC4(C(F)(F)F)CCO4)CC3)c(C#N)c2c(=O)n1CC#Cc1ccc(Cl)cc1-c1ccnc2c(C(=O)O)csc12 (centres unmarked) [compound 1717]	7.87
Cc1nc2cnc(N(C)C3CCN([C@H]4C[C@@H]4C(F)(F)F)CC3)c(C#N)c2c(=O)n1CC#Cc1ccc(Cl)cc1-c1ccnc2c(C(=O)O)csc12 [compound 1724]	8.39
Cc1nc2cnc(N(C)C3CCN([C@@H]4C[C@H]4C(F)(F)F)CC3)c(C#N)c2c(=O)n1CC#Cc1ccc(Cl)cc1-c1ccnc2c(C(=O)O)csc12 [compound 1727]	8.42
CCN(c1ncc2nc(C)n(CC#Cc3ccc(Cl)cc3-c3ccnc4c(C(=O)NS(=O)(=O)CC)csc34)c(=O)c2c1C#N)C1CCN(C2COC2)CC1 [compound 1733]	8.09
CCN(c1ncc2nc(C)n(CC#Cc3ccc(Cl)cc3-c3ccnc4c(C(=O)NS(=O)(=O)CC(F)(F)F)csc34)c(=O)c2c1C#N)C1CCN(C2COC2)CC1 [compound 1734]	7.71
CCN(c1ncc2nc(C)n(CC#Cc3ccc(Cl)cc3-c3ccnc4c(C(=O)NS(=O)(=O)CC#N)csc34)c(=O)c2c1C#N)C1CCN(C2COC2)CC1 [compound 1735]	7.47
CCN(c1ncc2nc(C)n(CC#Cc3ccc(Cl)cc3-c3ccnc4c(C(=O)NS(=O)(=O)CCC#N)csc34)c(=O)c2c1C#N)C1CCN(C2COC2)CC1 [compound 1736]	7.90
CCN(c1ncc2nc(C)n(CC#Cc3ccc(Cl)cc3-c3ccnc4c(C(=O)NS(=O)(=O)CC(C)(C)C#N)csc34)c(=O)c2c1C#N)C1CCN(C2COC2)CC1 [compound 1737]	7.84
CCN(c1ncc2nc(C)n(CC#Cc3ccc(Cl)cc3-c3ccnc4c(C(=O)NS(=O)(=O)Cc5ccccn5)csc34)c(=O)c2c1C#N)C1CCN(C2COC2)CC1 [compound 1738]	7.59
CCN(c1ncc2nc(C)n(CC#Cc3ccc(Cl)cc3-c3ccnc4c(C(=O)NS(=O)(=O)C5CC(F)(F)C5)csc34)c(=O)c2c1C#N)C1CCN(C2COC2)CC1 [compound 1739]	7.48
CCN(c1ncc2nc(C)n(CC#Cc3ccc(Cl)cc3-c3ccnc4c(C(=O)NS(=O)(=O)c5ccncc5)csc34)c(=O)c2c1C#N)C1CCN(C2COC2)CC1 [compound 1740]	7.90
CCN(c1ncc2nc(C)n(CC#Cc3ccc(Cl)cc3-c3ccnc4c(C(=O)NS(=O)(=O)c5cccnc5)csc34)c(=O)c2c1C#N)C1CCN(C2COC2)CC1 [compound 1741]	7.96
CCN(c1ncc2nc(C)n(CC#Cc3ccc(Cl)cc3-c3ccnc4c(C(=O)NS(=O)(=O)c5ccccn5)csc34)c(=O)c2c1C#N)C1CCN(C2COC2)CC1 [compound 1742]	8.27
CCN(c1ncc2nc(C)n(CC#Cc3ccc(Cl)cc3-c3ccnc4c(C(=O)NS(=O)(=O)C(F)(F)F)csc34)c(=O)c2c1C#N)C1CCN(C2COC2)CC1 [compound 1744]	7.94

SMILES	pIC50
CCN(c1ncc2nc(C)n(CC#Cc3ccc(Cl)cc3-c3ccnc4c(C(=O)NS(=O)(=O)CC(F)F)csc34)c(=O)c2c1C#N)C1CCN(C2COC2)CC1 [compound 1745]	7.96
CCN(c1ncc2nc(C)n(CC#Cc3ccc(Cl)cc3-c3ccnc4c(C(=O)NS(=O)(=O)C(C)C)csc34)c(=O)c2c1C#N)C1CCN(C2COC2)CC1 [compound 1746]	7.97
CCN(c1ncc2nc(C)n(CC#Cc3ccc(Cl)cc3-c3ccnc4c(C(=O)NS(=O)(=O)C(C)(C)C)csc34)c(=O)c2c1C#N)C1CCN(C2COC2)CC1 [compound 1747]	7.78
CCN(c1ncc2nc(C)n(CC#Cc3ccc(Cl)cc3-c3ccnc4c(C(=O)NS(=O)(=O)C5CCC5)csc34)c(=O)c2c1C#N)C1CCN(C2COC2)CC1 [compound 1748]	7.76
CCN(c1ncc2nc(C)n(CC#Cc3ccc(Cl)cc3-c3ccnc4c(C(=O)NS(=O)(=O)C5CC5)csc34)c(=O)c2c1C#N)C1CCN(C2COC2)CC1 [compound 1749]	7.79
CCN(c1ncc2nc(C)n(CC#Cc3ccc(Cl)cc3-c3ccnc4c(C(=O)NS(=O)(=O)C5COC5)csc34)c(=O)c2c1C#N)C1CCN(C2COC2)CC1 [compound 1750]	7.79
Cc1nc2cnc(N(C)C3CCN([C@H]4C[C@H](OC(F)F)C4)CC3)c(C#N)c2c(=O)n1CC#Cc1ccc(Cl)cc1-c1ccnc2c(C(=O)NS(C)(=O)=O)csc12 [compound 1761]	8.25
Cc1nc2cnc(N(C)C3CCN([C@H]4C[C@H](OC(F)F)C4)CC3)c(C#N)c2c(=O)n1CC#Cc1ccc(Cl)cc1-c1ccnc2c(C(=O)NS(=O)(=O)C3COC3)csc12 [compound 1762]	7.60
Cc1nc2cnc(N(C)C3CCN([C@H]4C[C@H](OC(F)F)C4)CC3)c(C#N)c2c(=O)n1CC#Cc1ccc(Cl)cc1-c1ccnc2c(C(=O)NS(=O)(=O)c3ccccn3)csc12 [compound 1763]	7.63
Cc1nc2cnc(N(C)C3CCN([C@H]4C[C@H](OC(F)F)C4)CC3)c(C#N)c2c(=O)n1CC#Cc1ccc(Cl)cc1-c1ccnc2c(C(=O)NS(=O)(=O)c3ccncc3)csc12 [compound 1764]	7.72
Cc1nc2cnc(N(C)C3CCN([C@H]4C[C@H](OC(F)F)C4)CC3)c(C#N)c2c(=O)n1CC#Cc1ccc(Cl)cc1-c1ccnc2c(C(=O)NS(=O)(=O)c3cccnc3)csc12 [compound 1765]	7.91
CCN(c1ncc2nc(C)n(CC#Cc3ccc(Cl)cc3-c3ccnc4c(C(=O)NS(C)(=O)=O)csc34)c(=O)c2c1C#N)C1CCN([C@H]2C[C@H](OC(F)F)C2)CC1 [compound 1767]	7.76
CCN(c1ncc2nc(C)n(CC#Cc3ccc(Cl)cc3-c3ccnc4c(C(=O)NS(=O)(=O)C5COC5)csc34)c(=O)c2c1C#N)C1CCN([C@H]2C[C@H](OC(F)F)C2)CC1 [compound 1768]	7.50
CCN(c1ncc2nc(C)n(CC#Cc3ccc(Cl)cc3-c3ccnc4c(C(=O)NS(=O)(=O)c5ccncc5)csc34)c(=O)c2c1C#N)C1CCN([C@H]2C[C@H](OC(F)F)C2)CC1 [compound 1769]	7.79
CCN(c1ncc2nc(C)n(CC#Cc3ccc(Cl)cc3-c3ccnc4c(C(=O)NS(=O)(=O)c5cccnc5)csc34)c(=O)c2c1C#N)C1CCN([C@H]2C[C@H](OC(F)F)C2)CC1 [compound 1770]	7.76

Next, values leading:

pIC50	SMILES
7.58	CCN(c1ncc2nc(C)n(CC#Cc3ccc(Cl)cc3-c3ccnc4c(C(=O)NS(=O)(=O)c5ccccn5)csc34)c(=O)c2c1C#N)C1CCN([C@H]2C[C@H](OC(F)F)C2)CC1 [compound 1771]
8.22	Cc1nc2cnc(N(C)C3CCN([C@H]4C[C@@H](OC(F)(F)F)C4)CC3)c(C#N)c2c(=O)n1CC#Cc1ccc(Cl)cc1-c1ccnc2c(C(=O)NS(C)(=O)=O)csc12 [compound 1772]
7.32	Cc1nc2cnc(N(C)C3CCN([C@H]4C[C@@H](OC(F)(F)F)C4)CC3)c(C#N)c2c(=O)n1CC#Cc1ccc(Cl)cc1-c1ccnc2c(C(=O)NS(=O)(=O)c3ccncc3)csc12 [compound 1773]
7.35	Cc1nc2cnc(N(C)C3CCN([C@H]4C[C@@H](OC(F)(F)F)C4)CC3)c(C#N)c2c(=O)n1CC#Cc1ccc(Cl)cc1-c1ccnc2c(C(=O)NS(=O)(=O)c3cccnc3)csc12 [compound 1774]
7.49	CCN(c1ncc2nc(C)n(CC#Cc3ccc(Cl)cc3-c3ccnc4c(C(=O)O)csc34)c(=O)c2c1C#N)C1CCN([C@H]2C[C@@H](OC(F)(F)F)C2)CC1 [compound 1775]
8.44	CCN(c1ncc2nc(C)n(CC#Cc3ccc(Cl)cc3-c3ccnc4c(C(=O)NS(C)(=O)=O)csc34)c(=O)c2c1C#N)C1CCN([C@H]2C[C@@H](OC(F)(F)F)C2)CC1 [compound 1776]
7.45	CCN(c1ncc2nc(C)n(CC#Cc3ccc(Cl)cc3-c3ccnc4c(C(=O)NS(=O)(=O)c5ccncc5)csc34)c(=O)c2c1C#N)C1CCN([C@H]2C[C@@H](OC(F)(F)F)C2)CC1 [compound 1779]
7.96	CCN(c1ncc2nc(C)n(CC#Cc3ccc(Cl)cc3-c3ccnc4c(C(=O)NS(=O)(=O)c5cccnc5)csc34)c(=O)c2c1C#N)C1CCN([C@H]2C[C@@H](OC(F)(F)F)C2)CC1 [compound 1780]
8.08	CCN(c1ncc2nc(C)n(CC#Cc3ccc(Cl)cc3-c3ccnc4c(C(=O)NS(=O)(=O)c5ccccn5)csc34)c(=O)c2c1C#N)C1CCN([C@H]2C[C@@H](OC(F)(F)F)C2)CC1 [compound 1781]
8.00	Cc1nc2cnc(N(C)C3CCN([C@H]4C[C@H](F)C4)CC3)c(C#N)c2c(=O)n1CC#Cc1ccc(Cl)cc1-c1ccnc2c(C(=O)NS(=O)(=O)C3COC3)csc12 [compound 1791]
8.03	Cc1nc2cnc(N(C)C3CCN([C@H]4C[C@H](F)C4)CC3)c(C#N)c2c(=O)n1CC#Cc1ccc(Cl)cc1-c1ccnc2c(C(=O)NS(=O)(=O)c3ccncc3)csc12 [compound 1792]
8.14	Cc1nc2cnc(N(C)C3CCN([C@H]4C[C@H](F)C4)CC3)c(C#N)c2c(=O)n1CC#Cc1ccc(Cl)cc1-c1ccnc2c(C(=O)NS(=O)(=O)c3ccccn3)csc12 [compound 1793]
8.03	Cc1nc2cnc(N(C)C3CCN([C@H]4C[C@H](F)C4)CC3)c(C#N)c2c(=O)n1CC#Cc1ccc(Cl)cc1-c1ccnc2c(C(=O)NS(=O)(=O)c3cccnc3)csc12 [compound 1794]
8.05	CCN(c1ncc2nc(C)n(CC#Cc3ccc(Cl)cc3-c3ccnc4c(C(=O)O)csc34)c(=O)c2c1C#N)C1CCN([C@H]2C[C@H](F)C2)CC1 [compound 1795]
7.98	CCS(=O)(=O)NC(=O)c1csc2c(-c3cc(Cl)ccc3C#CCn3c(C)nc4cnc(N(C)C5CCN(C6CC(F)(F)C6)CC5)c(C#N)c4c3=O)ccnc12 [compound 1807]
8.27	Cc1nc2cnc(N(C)C3CCN(C4CC(F)(F)C4)CC3)c(C#N)c2c(=O)n1CC#Cc1ccc(Cl)cc1-c1ccnc2c(C(=O)NS(=O)(=O)C(C)C)csc12 [compound 1808]
